Assay results: publication PMC6009964, “Designing, synthesis and bioactivities of 4-[3-(4-hydroxyphenyl)-5-aryl-4,5-dihydro-pyrazol-1-yl]benzenesulfonamides” (Journal of Enzyme Inhibition and Medicinal Chemistry, 2016)
Like-named read-outs stand apart in the source and are kept apart here.

What was measured:
hCA IX = molecular target: T1, hCA IX (Homo sapiens, UniProt Q16790); assay: Stopped-flow CO2 hydration carbonic anhydrase assay, hCA IX; type: biochemical; conditions: for Ki: stopped-flow CO2 hydration, 15 min preincubation, pH 7.5; for times more potent than compound 1 towards hCA IX: ratio of Ki versus compound 1
T1 construct: made in house

hCA XII = molecular target: T2, hCA XII (Homo sapiens, UniProt O43570); assay: Stopped-flow CO2 hydration carbonic anhydrase assay, hCA XII; type: biochemical; conditions: for Ki: stopped-flow CO2 hydration, 15 min preincubation, pH 7.5; for hCA XII/hCA IX (selectivity ratio of Ki): times more selective towards hCA XII than hCA IX; for times more potent than compound 1 towards hCA XII: ratio of Ki versus compound 1
T2 construct: made in house
T2 sequence (O43570 25-354): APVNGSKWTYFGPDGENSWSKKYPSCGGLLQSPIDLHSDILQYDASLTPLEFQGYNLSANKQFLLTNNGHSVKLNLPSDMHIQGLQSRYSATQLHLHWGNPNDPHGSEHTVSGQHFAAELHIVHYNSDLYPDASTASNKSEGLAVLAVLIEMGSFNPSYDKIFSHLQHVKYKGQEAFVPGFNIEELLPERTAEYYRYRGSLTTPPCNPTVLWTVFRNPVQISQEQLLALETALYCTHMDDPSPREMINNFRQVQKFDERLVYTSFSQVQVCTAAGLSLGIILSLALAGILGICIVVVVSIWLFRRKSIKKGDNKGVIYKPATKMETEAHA

[1] = test system: HSC-3 human oral squamous cell carcinoma cell line (tongue); assay: Cytotoxicity assay (MTT), HSC-3; conditions: for CC50: Homo sapiens, HSC-3, 48 h, read-out: CC50 HSC-3; for SI (HSC-3): average CC50 of nonmalignant cells / CC50 towards HSC-3
[2] = test system: HSC-4 human oral squamous cell carcinoma cell line (tongue); assay: Cytotoxicity assay (MTT), HSC-4; conditions: for CC50: Homo sapiens, HSC-4, 48 h, read-out: CC50 HSC-4; for SI (HSC-4): average CC50 of nonmalignant cells / CC50 towards HSC-4
[3] = Cytotoxicity assay (MTT), HPLF; conditions: human, normal periodontal ligament fibroblasts (HPLF)
[4] = Cytotoxicity assay (MTT), HPC; conditions: human, normal pulp cells (HPC)
[5] = test system: Human oral squamous cell carcinoma cell lines (Ca9–22, HSC-2, HSC-3, HSC-4); assay: Cytotoxicity assay (MTT), all four OSCC lines (mean, selectivity); conditions: for CC50: Homo sapiens; for TS (D/B): mean CC50 against normal cells / mean CC50 against cancer cells; for Mean SI: mean SI over four OSCC cell lines
[6] = Cytotoxicity assay (MTT), normal oral cells (mean); conditions: human, normal oral cells HGF, HPLF, HPC (mean of the three)
[7] = Cytotoxicity assay (MTT), HGF; conditions: human, normal gingival fibroblasts (HGF)
[8] = test system: Ca9–22 human oral squamous cell carcinoma cell line (gingiva); assay: Cytotoxicity assay (MTT), Ca9-22; conditions: for TS (C/A): CC50 HGF / CC50 Ca9–22 (same tissue origin, gingiva); for CC50: Homo sapiens, Ca9-22, 48 h, read-out: CC50 Ca9–22 (A); for SI (Ca9–22): average CC50 of nonmalignant cells / CC50 towards Ca9–22
[9] = test system: HSC-2 human oral squamous cell carcinoma cell line (tongue); assay: Cytotoxicity assay (MTT), HSC-2; conditions: for CC50: Homo sapiens, HSC-2, 48 h, read-out: CC50 HSC-2; for SI (HSC-2): average CC50 of nonmalignant cells / CC50 towards HSC-2
[10] = read-out: CC50 Mean (B), human oral squamous cell carcinoma cell lines

SMILES	Ki (hCA IX)	Ki (hCA XII)	CC50 [1]	SI (HSC-3) [1]	CC50 [2]	SI (HSC-4) [2]	CC50 at 48 h [3]	CC50 at 48 h [4]	CC50 [5, 10]	TS (D/B) [5]	Mean SI [5]	CC50 at 48 h [6]	CC50 at 48 h [7]	TS (C/A) [8]	CC50 [8]	SI (Ca9–22) [8]	CC50 [9]	SI (HSC-2) [9]	hCA XII/hCA IX (selectivity ratio of Ki) (hCA XII)	times more potent than compound 1 towards hCA IX (hCA IX)	further results
Cc1ccc(C2CC(c3ccc(O)cc3)=NN2c2ccc(S(N)(=O)=O)cc2)cc1 (stereo not shown) [Compound 2, 4-[3-(4-Hydroxyphenyl)-5-p-tolyl-4,5-dihydro-pyrazol-1-yl]benzenesulfonamide]	0.1 µM	0.095 µM	67.3 µM	1.4	70.3 µM	1.4	42.3 µM	150 µM	72.5 µM	1.3	1.4	97.2 µM	99.3 µM	1.7	57 µM	1.7	95.3 µM	1.0	–	–	–
NS(=O)(=O)c1ccc(N2N=C(c3ccc(O)cc3)CC2c2ccc(Cl)cc2)cc1 (stereo not shown) [Compound 4, 4-[5-(4-Chlorophenyl)-3-(4-hydroxyphenyl)-4,5-dihydro-pyrazol-1-yl]benzenesulfonamide]	0.0977 µM	0.0388 µM	57 µM	1.5	61 µM	1.4	29.3 µM	144 µM	59.8 µM	1.5	1.6	87.6 µM	89 µM	2.2	39.7 µM	2.2	81.7 µM	1.1	2.5	–	–
NS(=O)(=O)c1ccc(N2N=C(c3ccc(O)cc3)CC2c2ccc(Br)cc2)cc1 (stereo not shown) [Compound 7, 4-[5-(4-Bromophenyl)-3-(4-hydroxyphenyl)-4,5-dihydro-pyrazol-1-yl]benzenesulfonamide]	0.0662 µM	0.0076 µM	70.3 µM	1.1	61.7 µM	1.3	34.3 µM	149 µM	68.2 µM	1.2	1.2	78.6 µM	52 µM	0.9	55.7 µM	1.4	85 µM	0.9	8.7	–	–
NS(=O)(=O)c1ccc(N2N=C(c3ccc(O)cc3)CC2c2ccc([N+](=O)[O-])cc2)cc1 (stereo not shown) [Compound 8, 4-[3-(4-Hydroxyphenyl)-5-(4-nitrophenyl)-4,5-dihydro-pyrazol-1-yl]benzenesulfonamide]	0.0637 µM	0.0075 µM	63.3 µM	1.0	63.7 µM	1.0	30 µM	127 µM	60.6 µM	1.1	1.2	66.2 µM	42 µM	1.1	39.3 µM	1.7	76 µM	0.9	8.5	14.5	times more potent than compound 1 towards hCA XII (hCA XII): 9.2
NS(=O)(=O)c1ccc(N2N=C(c3ccc(O)cc3)CC2c2ccccc2)cc1 (stereo not shown) [Compound 1, 4-[3-(4-Hydroxyphenyl)-5-phenyl-4,5-dihydro-pyrazol-1-yl]benzenesulfonamide]	0.923 µM	0.0689 µM	81 µM	1.5	83.7 µM	1.4	59.7 µM	161 µM	85.3 µM	1.4	1.4	118 µM	133 µM	1.6	82 µM	1.4	94.7 µM	1.2	13.4	–	–
NS(=O)(=O)c1ccc(N2N=C(c3ccc(O)cc3)CC2c2cccs2)cc1 (stereo not shown) [Compound 9, 4-[3-(4-Hydroxyphenyl)-5-(thiophen-2-yl)-4,5-dihydro-pyrazol-1-yl]benzenesulfonamide]	–	–	87.3 µM	1.4	93.7 µM	1.3	26.7 µM	173 µM	86.8 µM	1.4	1.4	122 µM	166 µM	1.7	99.3 µM	1.2	67 µM	1.8	8.6	17.3	times more potent than compound 1 towards hCA XII (hCA XII): 11.1
O=c1[nH]cc(F)c(=O)[nH]1 [Compound 5-FU, 5-Fluorouracil, reference compound]	–	–	16 µM	>62.5	13 µM	>76.9	> 1000 µM	> 1000 µM	17.8 µM	>56.2	>62.7	> 1000 µM	> 1000 µM	>34.5	29 µM	>34.5	13 µM	>76.9	–	–	CC50 ([5]; read-out: CC50 range towards cancer cell lines): 13 to 29 µM
COc1ccc(C2CC(c3ccc(O)cc3)=NN2c2ccc(S(N)(=O)=O)cc2)cc1 (stereo not shown) [Compound 3, 4-[3-(4-Hydroxyphenyl)-5-(4-methoxyphenyl)-4,5-dihydro-pyrazol-1-yl]benzenesulfonamide]	0.0931 µM	0.0336 µM	71 µM	1.5	88.3 µM	1.2	39.3 µM	167 µM	77 µM	1.4	1.4	105 µM	108 µM	2.0	53.3 µM	2.0	95.3 µM	1.1	2.8	–	times increased inhibition potential versus compound 2 towards hCA IX (hCA IX; ratio of Ki versus compound 2): 1.1; times increased inhibition potential versus compound 2 towards hCA XII (hCA XII; ratio of Ki versus compound 2): 2.8
NS(=O)(=O)c1ccc(N2N=C(c3ccc(O)cc3)CC2c2ccc(F)cc2)cc1 (stereo not shown) [Compound 6, 4-[5-(4-Fluorophenyl)-3-(4-hydroxyphenyl)-4,5-dihydro-pyrazol-1-yl]benzenesulfonamide]	0.0841 µM	0.0086 µM	78 µM	1.1	62.3 µM	1.4	33 µM	155 µM	71.7 µM	1.2	1.2	84.2 µM	64.7 µM	1.0	61.7 µM	1.4	84.7 µM	1.0	9.8	–	–
NS(=O)(=O)c1ccc(N2N=C(c3ccc(O)cc3)CC2c2ccc(Cl)cc2Cl)cc1 (stereo not shown) [Compound 5, 4-[5-(2,4-Dichlorophenyl)-3-(4-hydroxyphenyl)-4,5-dihydro-pyrazol-1-yl]benzenesulfonamide]	0.0857 µM	0.0092 µM	76 µM	1.0	54 µM	1.4	34.7 µM	131 µM	64.2 µM	1.2	1.3	76.2 µM	63 µM	1.4	44.3 µM	1.7	82.3 µM	0.9	9.3	10.8	times more potent than compound 1 towards hCA XII (hCA XII): 7.5
